Patent publication US20250144067A1, “PERSONALIZED STARVATION THERAPY FOR CANCER” (Faeth Therapeutics, Inc., priority 2021, published 2025)
Where a name gives a salt, the structure may show the parent alone. Numbered stars: 1 amine (or outer) side, 2 acyl side, 3 side chain; on linkers, the order of the positions; unused ones are H or OH. Bridge positions count the residues as written; N and C are the ends. Square brackets hold non-standard residues; d marks the D form. Peptide text beside a SMILES is read from it. * marks the point of attachment. hTyr(3S-OH,4S-OH,3'-OSO3H) = N[C@H](C(=O)O)[C@H](O)[C@@H](O)c1ccc(O)c(OS(=O)(=O)O)c1; Orn(4R-OH,5R-OH) = O=C([C@H](C[C@@H](O)[C@@H](O)N[*:3])N[*:1])[*:2]; Pro(3S-OH,4S-Me) = C[C@H]1CN[C@H](C(=O)O)[C@H]1O; X1 = CCCCCOc1ccc(-c2cc(-c3ccc(C(=O)*)cc3)no2)cc1; Gln(3R-OH) = NC(=O)C[C@@H](O)[C@H](N)C(=O)O; Hyp = O=C(O)[C@@H]1C[C@@H](O)CN1

Experiments:
[1] = tested on: NCI-H292 lung cancer cells; experiment: FDA drug screening, complete media vs cholesterol-free media with simvastatin (TABLE 2); assay type: cell-based, human; conditions: for Cholesterol-free media + simvastatin (0.04 μM) / Complete Media: NCI-H292 cells
[2] = tested on: NCI-H292 lung cancer cells; experiment: FDA drug screening, complete media vs cholesterol-free media without statin (TABLE 1); assay type: cell-based, human
[3] = FDA library drug in cholesterol-free media with simvastatin 0.04 μM
[4] = FDA library drug in complete media
[5] = NCI-H292 cells, cholesterol-free media without statin, FDA drug library screen
[6] = NCI-H292 cells, complete media, FDA drug library screen
[7] = complete vs cholesterol-free media, […]
[8] = complete media vs cholesterol-free media + simvastatin (0.04 μM), >0 enhanced anti-cancer activity, about 0 neutral, <0 antagonist
[9] = complete vs cholesterol-free media, >0 enhanced anti-cancer activity, about 0 neutral, <0 antagonist
[10] = FDA drug library screen, cholesterol-free media with simvastatin 0.04 μM
[11] = FDA drug library screen, complete media
[12] = Complete minus Cholesterol-free, >0 enhanced anti-cancer activity, about 0 neutral, <0 antagonist
[13] = Complete minus Cholesterol-free, greater than 0 enhanced anti-cancer activity, about 0 neutral, below 0 antagonists
[14] = NCI-H292 cells in cholesterol-free media without statin
[15] = NCI-H292 cells in complete media
[16] = drug in cholesterol-free media with simvastatin 0.04 μM
[17] = Complete minus Cholesterol-free, greater than 0 enhanced anti-cancer activity, about 0 neutral, below 0 antagonist
[18] = NCI-H292 cells, FDA drug library screen, cholesterol-free media without statin
[19] = NCI-H292 cells, FDA drug library screen, complete media
[20] = cholesterol-free media with simvastatin 0.04 μM, FDA drug library screen (TABLE 2)
[21] = complete media, FDA drug library screen (TABLE 2)
[22] = NCI-H292 cells, cholesterol-free media without statin
[23] = complete media minus cholesterol-free media + simvastatin, >0 enhanced anti-cancer activity, about 0 neutral, <0 antagonist

CCCCCOc1ccc(-c2cc(-c3ccc(C(=O)N[C@H]4C[C@@H](O)[C@@H](O)NC(=O)[C@@H]5[C@@H](O)[C@@H](C)CN5C(=O)[C@H]([C@H](O)CC(N)=O)NC(=O)[C@H]([C@H](O)[C@@H](O)c5ccc(O)c(OS(=O)(=O)O)c5)NC(=O)[C@@H]5C[C@@H](O)CN5C(=O)[C@H]([C@@H](C)O)NC4=O)cc3)no2)cc1 [Micafungin (sodium)] (X1-[Orn(4R-OH,5R-OH)]T[Hyp][hTyr(3S-OH,4S-OH,3'-OSO3H)][Gln(3R-OH)][Pro(3S-OH,4S-Me)]; lactam 1-C)
Cholesterol-free media + simvastatin (0.04 μM) [1, 3]: 2.204
Complete Media [1, 4]: 1.774
Difference ([1]; complete media vs cholesterol-free media + simvastatin (0.04 μM), […]): −0.43
Cholesterol-free [2, 5]: 1.036
Complete [2, 6]: 1.188
Difference [2, 7]: 0.15

CCC(=O)O[C@@H]1CC(=O)O[C@H](C)C/C=C/C=C/[C@H](O)[C@H](C)C[C@H](CC=O)[C@H](O[C@@H]2O[C@H](C)[C@@H](O[C@H]3C[C@@](C)(O)[C@@H](OC(=O)CC)[C@H](C)O3)[C@H](N(C)C)[C@H]2O)[C@H]1OC [Midecamycin]
Cholesterol-free media + simvastatin (0.04 μM) [1, 3]: 1.255
Complete Media [1, 4]: 0.9149
Difference [1, 8]: −0.34
Cholesterol-free [2, 5]: 1.021
Complete [2, 6]: 1.536
Difference [2, 9]: 0.52

COc1ccc(OC)c(C(O)CNC(=O)CN)c1 (stereo not drawn) [Midodrine (hydrochloride)]
Cholesterol-free media + simvastatin (0.04 μM) [1, 3]: 2.06
Complete Media [1, 4]: 1.752
Difference [1, 8]: −0.31
Cholesterol-free [2, 5]: 0.6607
Complete [2, 6]: 0.8643
Difference [2, 9]: 0.20

CO[C@@H]1[C@H](N(C)C(=O)c2ccccc2)C[C@H]2O[C@]1(C)n1c3ccccc3c3c4c(c5c6ccccc6n2c5c31)C(=O)NC4 [Midostaurin]
Cholesterol-free media + simvastatin (0.04 μM) [1, 10]: 0.6712
Complete Media [1, 11]: 0.5312
Difference [1, 8]: −0.14
Difference [2, 12]: 0.06
Cholesterol-free [2, 5]: 0.3336
Complete [2, 6]: 0.3958

CC#C[C@]1(O)CC[C@H]2[C@@H]3CCC4=CC(=O)CCC4=C3[C@@H](c3ccc(N(C)C)cc3)C[C@@]21C [Mifepristone]
Cholesterol-free media + simvastatin (0.04 μM) [1, 3]: 1.308
Complete Media [1, 4]: 1.019
Difference [1, 8]: −0.29
Difference [2, 13]: −0.57
Cholesterol-free [2, 14]: 1.574
Complete [2, 15]: 0.9996

OC[C@H]1NC[C@H](O)[C@@H](O)[C@H]1O [Migalastat (hydrochloride)]
Cholesterol-free media + simvastatin (0.04 μM) ([1]; cholesterol-free media with simvastatin 0.04 μM, […]): 0.7275
Complete Media ([1]; complete media, […]): 0.7465
Difference ([1]; complete media minus cholesterol-free media + simvastatin, […]): 0.02
Difference ([2]; Complete minus Cholesterol-free, […]): −0.53
Cholesterol-free [2, 14]: 1.45
Complete [2, 15]: 0.9162

OCCN1C[C@H](O)[C@@H](O)[C@H](O)[C@H]1CO [Miglitol]
Cholesterol-free media + simvastatin (0.04 μM) [1, 16]: 1.367
Complete Media ([1]; drug in complete media): 1.199
Difference [1, 8]: −0.17
Difference [2, 17]: −0.11
Cholesterol-free [2, 18]: 0.916
Complete [2, 19]: 0.8049

CCCCN1C[C@H](O)[C@@H](O)[C@H](O)[C@H]1CO [Miglustat (hydrochloride)]
Cholesterol-free media + simvastatin (0.04 μM) [1, 10]: 0.8113
Complete Media [1, 11]: 0.7082
Difference [1, 8]: −0.10
Difference [2, 13]: −0.51
Cholesterol-free [2, 14]: 1.836
Complete [2, 15]: 1.323

C[N+](C)(C)NCCC(=O)[O-] [Mildronate]
Cholesterol-free media + simvastatin (0.04 μM) [1, 20]: 0.9839
Complete Media [1, 21]: 0.9927
Difference ([1]; complete media minus cholesterol-free media + simvastatin (0.04 μM), >0 enhanced anti-cancer activity, about 0 neutral, <0 antagonist): 0.01
Difference [2, 17]: −0.08
Cholesterol-free [2, 18]: 0.9949
Complete [2, 19]: 0.9146

CCN(CC)C(=O)C1(c2ccccc2)CC1CN (stereo not drawn) [Milnacipran (hydrochloride)]
Cholesterol-free media + simvastatin (0.04 μM) [1, 20]: 1.626
Complete Media [1, 21]: 1.564
Difference ([1]; complete media minus cholesterol-free media + simvastatin (0.04 μM), […]): −0.06
Cholesterol-free [2, 22]: 1.545
Complete ([2]; NCI-H292 cells, complete media): 1.09
Difference [2, 7]: −0.45

Cc1[nH]c(=O)c(C#N)cc1-c1ccncc1 [Milrinone]
Cholesterol-free media + simvastatin (0.04 μM) [1, 10]: 1.16
Complete Media [1, 11]: 1.825
Difference [1, 23]: 0.66
Difference [2, 12]: −0.04
Cholesterol-free [2, 5]: 0.9793
Complete [2, 6]: 0.9407

CCCCCCCCCCCCCCCCOP(=O)([O-])OCC[N+](C)(C)C [Miltefosine]
Cholesterol-free media + simvastatin (0.04 μM) [1, 16]: 1.237
Complete Media ([1]; drug in complete media): 0.9911
Difference [1, 8]: −0.25
Difference [2, 12]: −0.07
Cholesterol-free [2, 5]: 1.003
Complete [2, 6]: 0.9345

Cc1cc(-c2ccccc2)nnc1NCCN1CCOCC1 [Minaprine (dihydrochloride)]
Cholesterol-free media + simvastatin (0.04 μM) [1, 10]: 0.8439
Complete Media [1, 11]: 1.278
Difference [1, 23]: 0.43
Cholesterol-free [2, 22]: 1.341
Complete ([2]; NCI-H292 cells, complete media): 0.9021
Difference ([2]; complete vs cholesterol-free media, greater than 0 enhanced anti-cancer activity, about 0 neutral, below 0 antagonists): −0.44
